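Interpolation was linear, between the two tested concentrations surrounding the appropriate level; five concentrations were tested over 48 hours in 96-well plates. GI50: concentration for 50% inhibition of growth.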 Active and inactive are the calls of the source. Cut-off read from the data, not from the text of the source: active = GI50 up to about 1.1 µM and inactive = higher.
Columns and labels:
Test in all cases: inhibition of tumour cell growth, NCI panel, 48 h
COLO 205 = system: COLO 205
DU-145 = system: DU-145
HL-60 = system: HL-60
HT-29 = system: HT-29
Hs-578T = system: Hs-578T
KM-20L2 = system: KM-20L2
M14 = system: M14
MDA-MB-231 = system: MDA-MB-231
Malme-3M = system: Malme-3M
NCI-H226 = system: NCI-H226
NCI-H23 = system: NCI-H23
NCI-H522 = system: NCI-H522
OVCAR-5 = system: OVCAR-5
OVCAR-8 = system: OVCAR-8
SF-539 = system: SF-539
SNB-19 = system: SNB-19
SR = system: SR
TK-10 = system: TK-10
U-251 = system: U-251
UACC-62 = system: UACC-62

COc1cc2c3c(c1OC)-c1cc4c(cc1CC3(C#N)N(C(=O)c1ccccc1)CC2)OCO4 (stereo unspecified)
GI50 (COLO 205): > 100 µM (inactive)
GI50 (DU-145): > 100 µM (inactive)
GI50 (HL-60): > 100 µM (inactive)
GI50 (HT-29): > 100 µM (inactive)
GI50 (Hs-578T): 19.6 µM (inactive)
GI50 (KM-20L2): > 80.9 µM (inactive)
GI50 (M14): 54.2 µM (inactive)
GI50 (MDA-MB-231): 67.6 µM (inactive)
GI50 (Malme-3M): 35.3 µM (inactive)
GI50 (NCI-H226): 37.8 µM (inactive)
GI50 (NCI-H23): 25.5 µM (inactive)
GI50 (NCI-H522): 28.2 µM (inactive)
GI50 (OVCAR-5): > 56.2 µM (inactive)
GI50 (OVCAR-8): 20.7 µM (inactive)
GI50 (SF-539): 17.7 µM (inactive)
GI50 (SNB-19): 22.2 µM (inactive)
GI50 (SR): 65.9 µM (inactive)
GI50 (TK-10): 36 µM (inactive)
GI50 (U-251): 21.1 µM (inactive)
GI50 (UACC-62): 16.4 µM (inactive)

Nc1nc2c(ncn2CCOC(c2ccccc2)P(=O)(O)O)c(=O)[nH]1 (stereo unspecified)
GI50 (COLO 205): > 100 µM (inactive)
GI50 (HL-60): > 100 µM (inactive)
GI50 (HT-29): > 100 µM (inactive)
GI50 (KM-20L2): > 100 µM (inactive)
GI50 (Malme-3M): > 100 µM (inactive)
GI50 (NCI-H226): > 100 µM (inactive)
GI50 (NCI-H23): > 100 µM (inactive)
GI50 (NCI-H522): > 100 µM (inactive)
GI50 (OVCAR-5): > 100 µM (inactive)
GI50 (OVCAR-8): > 100 µM (inactive)
GI50 (SF-539): > 100 µM (inactive)
GI50 (SNB-19): > 100 µM (inactive)
GI50 (SR): > 100 µM (inactive)
GI50 (TK-10): > 100 µM (inactive)
GI50 (U-251): 1.09 µM (active)
GI50 (UACC-62): > 100 µM (inactive)

COC(=O)C(=O)C(/C(=N/N)C(=O)Nc1ccccc1C(N)=O)c1nc2ccc([N+](=O)[O-])cc2nc1O (stereo unspecified)
GI50 (COLO 205): > 100 µM (inactive)
GI50 (HL-60): > 100 µM (inactive)
GI50 (HT-29): > 100 µM (inactive)
GI50 (KM-20L2): > 100 µM (inactive)
GI50 (M14): > 100 µM (inactive)
GI50 (Malme-3M): > 100 µM (inactive)
GI50 (NCI-H226): 29.3 µM (inactive)
GI50 (NCI-H23): > 100 µM (inactive)
GI50 (NCI-H522): > 100 µM (inactive)
GI50 (OVCAR-5): > 100 µM (inactive)
GI50 (OVCAR-8): > 100 µM (inactive)
GI50 (SF-539): > 100 µM (inactive)
GI50 (SNB-19): > 100 µM (inactive)
GI50 (SR): > 100 µM (inactive)
GI50 (TK-10): > 100 µM (inactive)
GI50 (U-251): > 100 µM (inactive)
GI50 (UACC-62): > 100 µM (inactive)

Cc1ccc([N+](=O)[O-])c2c(NCCCN(C)C)ccnc12
GI50 (COLO 205): 15 µM (inactive)
GI50 (DU-145): > 100 µM (inactive)
GI50 (HL-60): 47.1 µM (inactive)
GI50 (HT-29): 31 µM (inactive)
GI50 (Hs-578T): > 100 µM (inactive)
GI50 (KM-20L2): 26.4 µM (inactive)
GI50 (M14): > 59.2 µM (inactive)
GI50 (MDA-MB-231): > 100 µM (inactive)
GI50 (Malme-3M): 17 µM (inactive)
GI50 (NCI-H226): > 100 µM (inactive)
GI50 (NCI-H23): 28.2 µM (inactive)
GI50 (NCI-H522): 19.6 µM (inactive)
GI50 (OVCAR-5): > 100 µM (inactive)
GI50 (OVCAR-8): 98.4 µM (inactive)
GI50 (SF-539): 27.3 µM (inactive)
GI50 (SNB-19): > 100 µM (inactive)
GI50 (SR): 66.4 µM (inactive)
GI50 (TK-10): > 100 µM (inactive)
GI50 (U-251): 87.3 µM (inactive)

O=C1OCc2nc3c(c(-c4ccccc4C(F)(F)F)c21)C(=O)OC3
GI50 (COLO 205): > 100 µM (inactive)
GI50 (HL-60): > 100 µM (inactive)
GI50 (KM-20L2): > 100 µM (inactive)
GI50 (M14): > 100 µM (inactive)
GI50 (Malme-3M): > 100 µM (inactive)
GI50 (NCI-H23): > 100 µM (inactive)
GI50 (NCI-H522): > 100 µM (inactive)
GI50 (OVCAR-5): > 100 µM (inactive)
GI50 (OVCAR-8): > 100 µM (inactive)
GI50 (SF-539): > 100 µM (inactive)
GI50 (SNB-19): > 100 µM (inactive)
GI50 (SR): > 100 µM (inactive)
GI50 (TK-10): > 100 µM (inactive)
GI50 (U-251): > 100 µM (inactive)
GI50 (UACC-62): > 100 µM (inactive)

O=[N+]([O-])c1ccc(C2N3CCCCC3[C@H]3CCCCN23)cc1 (stereo partly specified)
GI50 (COLO 205): > 100 µM (inactive)
GI50 (HL-60): > 100 µM (inactive)
GI50 (HT-29): > 100 µM (inactive)
GI50 (KM-20L2): > 100 µM (inactive)
GI50 (M14): > 100 µM (inactive)
GI50 (Malme-3M): > 100 µM (inactive)
GI50 (NCI-H226): > 100 µM (inactive)
GI50 (NCI-H23): > 100 µM (inactive)
GI50 (NCI-H522): > 100 µM (inactive)
GI50 (OVCAR-5): > 100 µM (inactive)
GI50 (OVCAR-8): > 100 µM (inactive)
GI50 (SF-539): > 100 µM (inactive)
GI50 (SNB-19): > 100 µM (inactive)
GI50 (SR): > 100 µM (inactive)
GI50 (TK-10): > 100 µM (inactive)
GI50 (U-251): > 100 µM (inactive)
GI50 (UACC-62): > 100 µM (inactive)

O=Cn1c2ccccc2c2ccccc21
GI50 (COLO 205): > 100 µM (inactive)
GI50 (HL-60): > 100 µM (inactive)
GI50 (KM-20L2): > 100 µM (inactive)
GI50 (M14): > 100 µM (inactive)
GI50 (Malme-3M): > 100 µM (inactive)
GI50 (NCI-H23): > 100 µM (inactive)
GI50 (NCI-H522): > 100 µM (inactive)
GI50 (OVCAR-5): > 100 µM (inactive)
GI50 (OVCAR-8): > 100 µM (inactive)
GI50 (SF-539): > 100 µM (inactive)
GI50 (SNB-19): > 100 µM (inactive)
GI50 (SR): > 100 µM (inactive)
GI50 (TK-10): > 100 µM (inactive)
GI50 (U-251): > 100 µM (inactive)
GI50 (UACC-62): > 100 µM (inactive)

O=C1OC2(OC2c2ccccc2)c2ccccc21 (stereo unspecified)
GI50 (COLO 205): > 100 µM (inactive)
GI50 (HL-60): > 100 µM (inactive)
GI50 (HT-29): > 100 µM (inactive)
GI50 (KM-20L2): > 100 µM (inactive)
GI50 (M14): > 100 µM (inactive)
GI50 (Malme-3M): > 100 µM (inactive)
GI50 (NCI-H226): > 100 µM (inactive)
GI50 (NCI-H23): > 100 µM (inactive)
GI50 (NCI-H522): > 100 µM (inactive)
GI50 (OVCAR-5): > 100 µM (inactive)
GI50 (OVCAR-8): > 100 µM (inactive)
GI50 (SF-539): > 100 µM (inactive)
GI50 (SNB-19): > 100 µM (inactive)
GI50 (SR): > 100 µM (inactive)
GI50 (TK-10): > 100 µM (inactive)
GI50 (U-251): > 100 µM (inactive)
GI50 (UACC-62): > 100 µM (inactive)

O=C(NCc1ccccc1)c1cc2ccc(O)c(O)c2cn1
GI50 (COLO 205): 32.1 µM (inactive)
GI50 (HL-60): 18.8 µM (inactive)
GI50 (HT-29): 44.1 µM (inactive)
GI50 (KM-20L2): > 100 µM (inactive)
GI50 (M14): 5.21 µM (inactive)
GI50 (Malme-3M): 16.7 µM (inactive)
GI50 (NCI-H226): 40 µM (inactive)
GI50 (NCI-H23): 12.1 µM (inactive)
GI50 (NCI-H522): 16.6 µM (inactive)
GI50 (OVCAR-5): 26 µM (inactive)
GI50 (OVCAR-8): 11.2 µM (inactive)
GI50 (SF-539): 18.2 µM (inactive)
GI50 (SNB-19): 35.4 µM (inactive)
GI50 (SR): 32.6 µM (inactive)
GI50 (TK-10): > 100 µM (inactive)
GI50 (U-251): 23.3 µM (inactive)
GI50 (UACC-62): 18.5 µM (inactive)

O=C(NCc1ccccc1)C1C(=O)C(=O)N(Cc2ccccc2)C1=O (stereo unspecified)
GI50 (COLO 205): > 100 µM (inactive)
GI50 (HL-60): > 100 µM (inactive)
GI50 (HT-29): > 100 µM (inactive)
GI50 (KM-20L2): > 100 µM (inactive)
GI50 (M14): > 100 µM (inactive)
GI50 (Malme-3M): > 100 µM (inactive)
GI50 (NCI-H226): > 100 µM (inactive)
GI50 (NCI-H23): > 100 µM (inactive)
GI50 (NCI-H522): > 100 µM (inactive)
GI50 (OVCAR-5): > 100 µM (inactive)
GI50 (OVCAR-8): > 100 µM (inactive)
GI50 (SF-539): > 100 µM (inactive)
GI50 (SNB-19): > 100 µM (inactive)
GI50 (SR): > 100 µM (inactive)
GI50 (TK-10): > 100 µM (inactive)
GI50 (U-251): > 100 µM (inactive)
GI50 (UACC-62): > 100 µM (inactive)

CCOc1ccccc1NC(=O)CC1C(=O)Nc2ccccc2[S+]1[O-] (stereo unspecified)
GI50 (HL-60): 26.8 µM (inactive)
GI50 (HT-29): > 100 µM (inactive)
GI50 (KM-20L2): > 100 µM (inactive)
GI50 (M14): 77.1 µM (inactive)
GI50 (Malme-3M): > 100 µM (inactive)
GI50 (NCI-H226): 60.5 µM (inactive)
GI50 (NCI-H23): > 100 µM (inactive)
GI50 (NCI-H522): 45.4 µM (inactive)
GI50 (OVCAR-5): > 100 µM (inactive)
GI50 (OVCAR-8): 43.2 µM (inactive)
GI50 (SF-539): > 100 µM (inactive)
GI50 (SNB-19): > 100 µM (inactive)
GI50 (SR): 16.5 µM (inactive)
GI50 (TK-10): > 100 µM (inactive)
GI50 (U-251): 67.9 µM (inactive)
GI50 (UACC-62): 26.3 µM (inactive)
